According to BindingDB's records for doi:10.1021/acsmedchemlett.0c00495 (Janssen Research & Development, 2020):

Biological target: Cannabinoid receptor 2 (Homo sapiens, UniProt P34972)
Assay: Inverse agonist activity at human CB2 receptor expressed in HEK293 cells assessed as forskolin-stimulated cAMP accumulation after 30 mins by HTRF assay

Cannabinoid receptor 2, sequence (P34972 whole entry): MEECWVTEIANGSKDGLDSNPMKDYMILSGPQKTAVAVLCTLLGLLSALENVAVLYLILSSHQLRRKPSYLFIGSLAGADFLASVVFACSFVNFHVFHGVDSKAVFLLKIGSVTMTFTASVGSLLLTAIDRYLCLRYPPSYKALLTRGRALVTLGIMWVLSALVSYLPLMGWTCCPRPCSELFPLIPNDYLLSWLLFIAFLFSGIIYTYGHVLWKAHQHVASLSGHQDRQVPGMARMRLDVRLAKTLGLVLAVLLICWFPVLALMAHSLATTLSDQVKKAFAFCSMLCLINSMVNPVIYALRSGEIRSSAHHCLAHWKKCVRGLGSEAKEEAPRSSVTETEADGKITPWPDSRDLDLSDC

Nc1nc(NC2CCN(S(=O)(=O)C(F)(F)F)CC2)c2cc(C(c3ccc(Cl)cc3)c3ccc(Cl)cc3)ccc2n1 [US9682955, 107]
EC50: > 10 µM
